# Assays:
# Assay type in all cases: in vivo
# [1] = system: smallflower flatsedge (Cyperus difformis); test: Test C flooded paddy test; conditions: for Flatsedge plant response rating: Flooded Paddy, scale 0 to 100, 0 no effect, 100 complete control; for Plant response rating, Flatsedge: flooded paddy test, scale 0 to 100 (0 no effect, 100 complete control)
# Summary of the method: (§1)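 Visually assessed vs untreated controls 12–14 d post-treatment (greenhouse). Flooded paddy plants were at the 2-leaf stage; scale 0 = no effect, 100 = complete control.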
# rice (Oryza saliva) [2] = test: Test C flooded paddy test; conditions: for Rice plant response rating: Flooded Paddy, scale 0 to 100, 0 no effect, 100 complete control; for Plant response rating, Rice: flooded paddy test, scale 0 to 100 (0 no effect, 100 complete control)
# Summary of the method: as §1
# [3] = system: duck salad (Heteranthera limosa); test: Test C flooded paddy test; conditions: for Ducksalad plant response rating: Flooded Paddy, scale 0 to 100, 0 no effect, 100 complete control; for Plant response rating, Ducksalad: flooded paddy test, scale 0 to 100 (0 no effect, 100 complete control)
# Summary of the method: as §1
# [4] = system: barnyardgrass (Echinochloa crus-galli); test: Test C flooded paddy test; conditions: for Barnyardgrass plant response rating: Flooded Paddy, scale 0 to 100, 0 no effect, 100 complete control; for Plant response rating, Barnyardgrass: flooded paddy test, scale 0 to 100 (0 no effect, 100 complete control)
# Summary of the method: as §1
# [5] = system: velvetleaf (Abutilon theophrasti); test: Test B postemergence
# Summary of the method: (§2)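 Visual injury scores, 0 = no effect to 100 = complete control, assigned against controls after 13 to 15 days in the greenhouse. Compounds formulated in non-phytotoxic solvent plus surfactant and applied to soil after planting (pre) or onto foliage of 1- to 4-leaf plants (post).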
# corn (Zea mays) [6] = test: Test B postemergence
# Summary of the method: as §2
# [7] = system: crabgrass (Digitaria sanguinalis); test: Test B postemergence
# Summary of the method: as §2
# [8] = system: morning glory (Ipomoea hederacea); test: Test B postemergence
# Summary of the method: as §2
# [9] = system: lambsquarters (Chenopodium album); test: Test B postemergence
# Summary of the method: as §2
# [10] = system: cocklebur (Xanthium strumarium); test: Test B postemergence
# Summary of the method: as §2
# [11] = system: giant foxtail (Setaria faberii); test: Test B postemergence
# Summary of the method: as §2
# [12] = system: wheat (Triticum aestivum); test: Test B postemergence
# Summary of the method: as §2
# [13] = system: Surinam grass (Brachiaria decumbens); test: Test B postemergence
# Summary of the method: as §2
# wild oat (Avena fatua) = test: Test B postemergence
# Summary of the method: as §2
# [14] = system: blackgrass (Alopecurus myosuroides); test: Test B postemergence
# Summary of the method: as §2
# [15] = system: barnyardgrass (Echinochloa crus-galli); test: Test B postemergence
# Summary of the method: as §2
# [16] = system: pigweed (Amaranthus retroflexus); test: Test B postemergence
# Summary of the method: as §2
# [17] = system: velvetleaf (Abutilon theophrasti); test: Test B preemergence
# Summary of the method: as §2
# corn (Zea mays) [18] = test: Test B preemergence
# Summary of the method: as §2
# [19] = system: crabgrass (Digitaria sanguinalis); test: Test B preemergence
# Summary of the method: as §2
# [20] = system: morning glory (Ipomoea hederacea); test: Test B preemergence
# Summary of the method: as §2
# [21] = system: lambsquarters (Chenopodium album); test: Test B preemergence
# Summary of the method: as §2
# [22] = system: cocklebur (Xanthium strumarium); test: Test B preemergence
# Summary of the method: as §2
# [23] = system: giant foxtail (Setaria faberii); test: Test B preemergence
# Summary of the method: as §2
# [24] = system: Surinam grass (Brachiaria decumbens); test: Test B preemergence
# Summary of the method: as §2
# rice (Oryza saliva) [25] = test: Test B preemergence
# Summary of the method: as §2
# [26] = system: barnyardgrass (Echinochloa crus-galli); test: Test B preemergence
# Summary of the method: as §2
# [27] = system: pigweed (Amaranthus retroflexus); test: Test B preemergence
# Summary of the method: as §2
# [28] = Rate 500 g/ha, scale 0 to 100, 0 is no effect, 100 is complete control, 13 to 15 days
# [29] = Rate 125 g/ha, scale 0 (no effect) to 100 (complete control), 13 to 15 days
# [30] = Preemergence, Rate 500 g/ha, scale 0 to 100, 0 no effect, 100 complete control
# [31] = preemergence, Rate 125 g/ha, scale of 0 to 100 where 0 is no effect and 100 is complete control, 13 to 15 days
# [32] = Rate 125 g/ha, scale 0 to 100, 0 no effect, 100 complete control
smiles,measurement,setting,value
Cc1ccc(N2CCC(n3ccc(C(C)(C)C)n3)C2=O)cc1OC(C)C (centres unmarked) [Compound 110],Flatsedge plant response rating,[1]; Rate 250 g/ha,100
same,Flatsedge plant response rating,[1]; Rate 500 g/ha,100
same,"Plant response rating, Flatsedge",[1]; Rate 62 g/ha,50
same,"Plant response rating, Flatsedge",[1]; Rate 125 g/ha,50
same,Rice plant response rating,rice (Oryza saliva) [2]; Rate 250 g/ha,70
same,Rice plant response rating,rice (Oryza saliva) [2]; Rate 500 g/ha,80
same,"Plant response rating, Rice",rice (Oryza saliva) [2]; Rate 62 g/ha,0
same,"Plant response rating, Rice",rice (Oryza saliva) [2]; Rate 125 g/ha,30
same,Ducksalad plant response rating,[3]; Rate 250 g/ha,70
same,Ducksalad plant response rating,[3]; Rate 500 g/ha,70
same,"Plant response rating, Ducksalad",[3]; Rate 62 g/ha,10
same,"Plant response rating, Ducksalad",[3]; Rate 125 g/ha,20
same,Barnyardgrass plant response rating,[4]; Rate 250 g/ha,70
same,Barnyardgrass plant response rating,[4]; Rate 500 g/ha,80
same,"Plant response rating, Barnyardgrass",[4]; Rate 62 g/ha,0
same,"Plant response rating, Barnyardgrass",[4]; Rate 125 g/ha,0
same,"Plant response rating, Velvetleaf",[5]; [28],70
same,"Plant response rating, Corn",corn (Zea mays) [6]; [29],0
same,"Plant response rating, Corn",corn (Zea mays) [6]; [28],0
same,"Plant response rating, Crabgrass",[7]; [29],0
same,"Plant response rating, Crabgrass",[7]; [28],0
same,"Plant response rating, Morningglory",[8]; [28],60
same,"Plant response rating, Lambsquarters",[9]; [28],90
same,"Plant response rating, Cocklebur",[10]; [29],30
same,"Plant response rating, Cocklebur",[10]; [28],30
same,"Plant response rating, Foxtail, Giant",[11]; [29],0
same,"Plant response rating, Foxtail, Giant",[11]; [28],0
same,"Plant response rating, Wheat",[12]; [28],0
same,"Plant response rating, Surinam grass",[13]; [29],0
same,"Plant response rating, Surinam grass",[13]; [28],0
same,"Plant response rating, Wild Oat",wild oat (Avena fatua); [28],0
same,"Plant response rating, Blackgrass",[14]; [29],0
same,"Plant response rating, Blackgrass",[14]; [28],0
same,"Plant response rating, Barnyardgrass",[15]; [29],0
same,"Plant response rating, Barnyardgrass",[15]; [28],0
same,"Plant response rating, Pigweed",[16]; [28],70
same,"Plant response rating, Velvetleaf",[17]; [30],80
same,"Plant response rating, Velvetleaf",[17]; [31],0
same,"Plant response rating, Corn",corn (Zea mays) [18]; [30],0
same,"Plant response rating, Corn",corn (Zea mays) [18]; [31],0
same,"Plant response rating, Crabgrass",[19]; [30],100
same,"Plant response rating, Crabgrass",[19]; [31],100
same,"Plant response rating, Morningglory",[20]; [30],0
same,"Plant response rating, Morningglory",[20]; [31],0
same,"Plant response rating, Lambsquarters",[21]; [30],100
same,"Plant response rating, Lambsquarters",[21]; [31],0
same,"Plant response rating, Cocklebur",[22]; [30],70
same,"Plant response rating, Cocklebur",[22]; [31],0
same,"Plant response rating, Foxtail, Giant",[23]; [30],50
same,"Plant response rating, Foxtail, Giant",[23]; [31],0
same,"Plant response rating, Surinam grass",[24]; [30],40
same,"Plant response rating, Surinam grass",[24]; [31],0
same,"Plant response rating, Rice",rice (Oryza saliva) [25]; [30],0
same,"Plant response rating, Rice",rice (Oryza saliva) [25]; [31],0
same,"Plant response rating, Barnyardgrass",[26]; [30],0
same,"Plant response rating, Barnyardgrass",[26]; [31],30
same,"Plant response rating, Pigweed",[27]; [30],100
same,"Plant response rating, Pigweed",[27]; [31],100
CCCCC(CCCC)c1ccn(C2OCN(c3cccc(C(F)(F)F)c3)C2=O)n1 (centres unmarked) [Compound 114],Flatsedge plant response rating,[1]; Rate 250 g/ha,0
same,Flatsedge plant response rating,[1]; Rate 500 g/ha,0
same,"Plant response rating, Flatsedge",[1]; Rate 62 g/ha,0
same,"Plant response rating, Flatsedge",[1]; Rate 125 g/ha,0
same,Rice plant response rating,rice (Oryza saliva) [2]; Rate 250 g/ha,0
same,Rice plant response rating,rice (Oryza saliva) [2]; Rate 500 g/ha,0
same,"Plant response rating, Rice",rice (Oryza saliva) [2]; Rate 62 g/ha,0
same,"Plant response rating, Rice",rice (Oryza saliva) [2]; Rate 125 g/ha,0
same,Ducksalad plant response rating,[3]; Rate 250 g/ha,0
same,Ducksalad plant response rating,[3]; Rate 500 g/ha,0
same,"Plant response rating, Ducksalad",[3]; Rate 62 g/ha,0
same,"Plant response rating, Ducksalad",[3]; Rate 125 g/ha,0
same,Barnyardgrass plant response rating,[4]; Rate 250 g/ha,0
same,Barnyardgrass plant response rating,[4]; Rate 500 g/ha,0
same,"Plant response rating, Barnyardgrass",[4]; Rate 62 g/ha,0
same,"Plant response rating, Barnyardgrass",[4]; Rate 125 g/ha,0
same,"Plant response rating, Velvetleaf",[5]; [32],0
same,"Plant response rating, Velvetleaf",[5]; [28],0
same,"Plant response rating, Corn",corn (Zea mays) [6]; [32],0
same,"Plant response rating, Corn",corn (Zea mays) [6]; [28],0
same,"Plant response rating, Crabgrass",[7]; [32],20
same,"Plant response rating, Crabgrass",[7]; [28],30
same,"Plant response rating, Morningglory",[8]; [32],30
same,"Plant response rating, Morningglory",[8]; [28],60
same,"Plant response rating, Lambsquarters",[9]; [32],90
same,"Plant response rating, Lambsquarters",[9]; [28],100
same,"Plant response rating, Cocklebur",[10]; [32],50
same,"Plant response rating, Cocklebur",[10]; [28],60
same,"Plant response rating, Foxtail, Giant",[11]; [32],0
same,"Plant response rating, Foxtail, Giant",[11]; [28],0
same,"Plant response rating, Wheat",[12]; [32],20
same,"Plant response rating, Wheat",[12]; [28],30
same,"Plant response rating, Surinam grass",[13]; [32],30
same,"Plant response rating, Surinam grass",[13]; [28],30
same,"Plant response rating, Wild Oat",wild oat (Avena fatua); [32],30
same,"Plant response rating, Wild Oat",wild oat (Avena fatua); [28],50
same,"Plant response rating, Blackgrass",[14]; [32],0
same,"Plant response rating, Blackgrass",[14]; [28],0
same,"Plant response rating, Barnyardgrass",[15]; [32],0
same,"Plant response rating, Barnyardgrass",[15]; [28],20
same,"Plant response rating, Pigweed",[16]; [32],90
same,"Plant response rating, Pigweed",[16]; [28],100
same,"Plant response rating, Velvetleaf",[17]; [30],0
same,"Plant response rating, Velvetleaf",[17]; [31],0
same,"Plant response rating, Corn",corn (Zea mays) [18]; [30],30
same,"Plant response rating, Corn",corn (Zea mays) [18]; [31],20
same,"Plant response rating, Crabgrass",[19]; [30],0
same,"Plant response rating, Crabgrass",[19]; [31],0
same,"Plant response rating, Morningglory",[20]; [30],30
same,"Plant response rating, Morningglory",[20]; [31],0
same,"Plant response rating, Lambsquarters",[21]; [30],100
same,"Plant response rating, Lambsquarters",[21]; [31],30
same,"Plant response rating, Cocklebur",[22]; [30],0
same,"Plant response rating, Cocklebur",[22]; [31],0
same,"Plant response rating, Foxtail, Giant",[23]; [30],0
same,"Plant response rating, Foxtail, Giant",[23]; [31],0
same,"Plant response rating, Surinam grass",[24]; [30],0
same,"Plant response rating, Surinam grass",[24]; [31],0
same,"Plant response rating, Rice",rice (Oryza saliva) [25]; [30],0
same,"Plant response rating, Rice",rice (Oryza saliva) [25]; [31],0
same,"Plant response rating, Barnyardgrass",[26]; [30],0
same,"Plant response rating, Barnyardgrass",[26]; [31],0
same,"Plant response rating, Pigweed",[27]; [30],100
same,"Plant response rating, Pigweed",[27]; [31],30
